Reference: patent US8754079B2, “Cycloalkyl containing thienopyrimidines for pharmaceutical compositions” (Boehringer Ingelheim International GmbH, priority 2010, dated 2014)
Structures can show the parent of a compound that is named as a salt.

Target: T1, MNK2 (Homo sapiens, UniProt Q9HBH9)
T1 construct: the open reading frames of human Mnk1 and Mnk2a were amplified from cDNA; made in house; host or cells: E. coli BL21
Assay: Mnk2a in vitro kinase assay (indirect fluorescence polarization)
Type: biochemical
Conditions: pre-activated GST-Mnk2a 2.5 nM, 20 μM ATP, 30 μM substrate peptide
Procedure, shortened: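 Human GST-Mnk2a was expressed in E. coli and activated in vitro with 150 nM pre-activated ERK2 and 50 μM ATP in HEPES pH 7.4/MgCl2 buffer (45 min, 30 °C). Activity on an eIF4E Ser209-derived 12mer peptide was read by competitive fluorescence polarization with a phospho-specific antibody.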

T1 sequence (Q9HBH9 whole entry): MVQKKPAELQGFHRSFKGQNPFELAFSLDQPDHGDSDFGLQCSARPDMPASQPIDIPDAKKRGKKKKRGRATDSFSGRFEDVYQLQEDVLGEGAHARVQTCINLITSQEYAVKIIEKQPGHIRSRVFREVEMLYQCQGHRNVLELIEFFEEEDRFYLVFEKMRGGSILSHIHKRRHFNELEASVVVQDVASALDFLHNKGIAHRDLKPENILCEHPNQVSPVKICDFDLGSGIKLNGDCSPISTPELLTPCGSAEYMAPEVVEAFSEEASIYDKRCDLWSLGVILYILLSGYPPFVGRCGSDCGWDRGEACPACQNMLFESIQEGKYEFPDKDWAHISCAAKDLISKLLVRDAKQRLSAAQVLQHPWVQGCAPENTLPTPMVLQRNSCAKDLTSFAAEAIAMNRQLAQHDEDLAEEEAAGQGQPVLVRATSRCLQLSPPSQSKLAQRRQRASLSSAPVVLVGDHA

Row | Structure (SMILES) | IC50 [nM]
1 | CO[C@H]1CC[C@H](Oc2cc(F)ccc2Nc2ncnc3sc(C(=O)NCCO)c(C)c23)CC1 [Example 196] | 17
2 | CO[C@H]1CC[C@H](Oc2cc(F)ccc2Nc2ncnc3sc(C(=O)NCCCn4ccnc4)c(C)c23)CC1 [Example 197] | 1
3 | CO[C@H]1CC[C@H](Oc2cc(F)ccc2Nc2ncnc3sc(C(=O)NCCCN4CCC(O)C4)c(C)c23)CC1 (stereo partly drawn) [Example 201, 4-[4-Fluoro-2-(trans-4-methoxy-cyclohexyloxy)-phenylamino]-5-methyl-thieno[2,3-d]pyrimidine-6-carboxylic acid [3-(3-hydroxy-pyrrolidin-1-yl)-propyl]-amide] | 16
4 | COCCNC(=O)c1sc2ncnc(Nc3ccc(F)cc3O[C@H]3CC[C@@H](OC)CC3)c2c1C [Example 203] | 62
5 | CNC(=O)c1sc2ncnc(Nc3cccnc3O[C@H]3CC[C@H](OC)CC3)c2c1C [Example 208] | 14
6 | Cc1c(C(N)=O)sc2ncnc(Nc3ccc(F)cc3O[C@@H]3C[C@@H](O)[C@@H](O)C3)c12 [Example 212] | 8
7 | Cc1c(C(N)=O)sc2ncnc(Nc3ccc(F)cc3OC3CCC(O)C3)c12 (centres unmarked) [Example 225, 4-(4-fluoro-2-(3-hydroxycyclopentyloxy)phenylamino)-5-methylthieno[2,3-d]pyrimidine-6-carboxamide] | 6
8 | Cc1c(C(=O)NCCCN(C)C)sc2ncnc(Nc3ccc(F)cc3OC3CCC(O)C3)c12 (centres unmarked) [Example 226, N-(3-(dimethylamino)propyl)-4-(4-fluoro-2-(3-hydroxycyclopentyloxy)phenylamino)-5-methylthieno[2,3-d]pyrimidine-6-carboxamide] | 10
9 | Cc1c(C(=O)NCCO)sc2ncnc(Nc3ccc(F)cc3OC3CCC(O)C3)c12 (centres unmarked) [Example 227, 4-(4-Fluoro-2-(3-hydroxycyclopentyloxy)phenylamino)-N-(2-hydroxyethyl)-5-methylthieno[2,3-d]pyrimidine-6-carboxamide] | 12
10 | Cc1c(C(N)=O)sc2ncnc(Nc3ccc(F)cc3O[C@H]3CC[C@H](NC(=O)OC(C)(C)C)C3)c12 [Example 228, {(1S,3S)-3-[2-(6-Carbamoyl-5-methyl-thieno[2,3-d]pyrimidin-4-ylamino)-5-fluoro-phenoxy]-cyclopentyl}-carbamic acid tert-butyl ester] | 1140
11 | CC(=O)N[C@H]1CC[C@H](Oc2cc(F)ccc2Nc2ncnc3sc(C(=O)NC4CCN(C)CC4)c(C)c23)C1 [Example 234] | 32
12 | CNC(=O)c1sc2ncnc(Nc3ccc(F)cc3O[C@H]3CC[C@H](NC(C)=O)C3)c2c1C [Example 235] | 6
13 | CONC(=O)c1sc2ncnc(Nc3ccc(F)cc3O[C@H]3CC[C@H](NC(C)=O)C3)c2c1C [Example 236] | 16
14 | CC(=O)N[C@H]1CC[C@H](Oc2cc(F)ccc2Nc2ncnc3sc(C(=O)NCCCN(C)C)c(C)c23)C1 [Example 237] | 25
15 | CC(=O)N[C@H]1CC[C@H](Oc2cc(F)ccc2Nc2ncnc3sc(C(=O)N[C@@H]4C[C@H]4N)c(C)c23)C1 [Example 238] | 31
16 | CC(=O)N[C@H]1C[C@H](Oc2cc(F)ccc2Nc2ncnc3sc(C(=O)NCC#N)c(C)c23)C1 [Example 241, 4-[2-(trans-3-Acetylamino-cyclobutoxy)-4-fluoro-phenylamino]-5-methyl-thieno[2,3-d]pyrimidine-6-carboxylic acid cyanomethyl-amide] | 49
17 | Cc1c(C(N)=O)sc2ncnc(Nc3ccc(F)cc3OC3CCC3)c12 [Example 243, 4-(2-Cyclobutoxy-4-fluoro-phenylamino)-5-methyl-thieno[2,3-d]pyrimidine-6-carboxylic acid amide] | 9
18 | Cc1c(C(N)=O)sc2ncnc(Nc3ccc(F)cc3OC3CCCC3)c12 [Example 244, 4-(2-Cyclopentoxy-4-fluoro-phenylamino)-5-methyl-thieno[2,3-d]pyrimidine-6-carboxylic acid amide] | 2
19 | CC(=O)N[C@H]1C[C@H](Oc2cc(F)ccc2Nc2ncnc3sc(C(=O)NCC#CCN(C)C)c(C)c23)C1 [Example 245, 4-[2-(trans-3-Acetylamino-cyclobutoxy)-4-fluoro-phenylamino]-5-methyl-thieno[2,3-d]pyrimidine-6-carboxylic acid (4-dimethylamino-but-2-ynyl)-amide] | 39
20 | CC(=O)N[C@H]1C[C@H](Oc2cc(F)ccc2Nc2ncnc3sc(C(=O)N[C@H]4C[C@@H]4N)c(C)c23)C1 [Example 246, 4-[2-(trans-3-Acetylamino-cyclobutoxy)-4-fluoro-phenylamino]-5-methyl-thieno[2,3-d]pyrimidine-6-carboxylic acid (2-amino-cyclopropyl)-amide] | 65

Second part, the compound after the results:

Row | IC50 [nM] | Structure (SMILES)
21 | 19 | CO[C@H]1CC[C@H](Oc2cc(F)ccc2Nc2ncnc3sc(C(=O)NCCCO)c(C)c23)CC1 [Example 195]
22 | 15 | CO[C@H]1CC[C@H](Oc2cc(F)ccc2Nc2ncnc3sc(C(=O)NCC4CN(C)CCO4)c(C)c23)CC1 (some centres unmarked) [Example 199]
23 | 17 | CO[C@H]1CC[C@H](Oc2cc(F)ccc2Nc2ncnc3sc(C(=O)NCC4CCCNC4)c(C)c23)CC1 (stereo partly drawn) [Example 200, 4-[4-Fluoro-2-(trans-4-methoxy-cyclohexyloxy)-phenylamino]-5-methyl-thieno[2,3-d]pyrimidine-6-carboxylic acid (piperidin-3-ylmethyl)-amide]
24 | 46 | CO[C@H]1CC[C@@H](Oc2cc(F)ccc2Nc2ncnc3sc(C(=O)NCCCN(C)C)c(C)c23)CC1 [Example 202, 4-[4-Fluoro-2-(cis-4-methoxy-cyclohexyloxy)-phenylamino]-5-methyl-thieno[2,3-d]pyrimidine-6-carboxylic acid (3-dimethylamino-propyl)-amide]
25 | 5 | Cc1c(C(N)=O)sc2ncnc(Nc3cccnc3O[C@H]3CC[C@H](O)CC3)c12 [Example 204, 4-[2-(trans-4-Hydroxy-cyclohexyloxy)-pyridin-3-ylamino]-5-methyl-thieno[2,3-d]pyrimidine-6-carboxylic acid amide]
26 | 10 | Cc1c(C(N)=O)sc2ncnc(Nc3cccnc3O[C@H]3CC[C@@H](O)CC3)c12 [Example 205, 4-[2-(cis-4-Hydroxy-cyclohexyloxy)-pyridin-3-ylamino]-5-methyl-thieno[2,3-d]pyrimidine-6-carboxylic acid amide]
27 | 13 | Cc1c(C(=O)NCCCN(C)C)sc2ncnc(Nc3cccnc3O[C@H]3CC[C@H](O)CC3)c12 [Example 206, 4-[2-(trans-4-Hydroxy-cyclohexyloxy)-pyridin-3-ylamino]-5-methyl-thieno[2,3-d]pyrimidine-6-carboxylic acid (3-dimethylamino-propyl)-amide]
28 | 9 | CO[C@H]1CC[C@H](Oc2ncccc2Nc2ncnc3sc(C(N)=O)c(C)c23)CC1 [Example 207, 4-[2-(trans-4-Methoxy-cyclohexyloxy)-pyridin-3-ylamino]-5-methyl-thieno[2,3-d]pyrimidine-6-carboxylic acid amide]
29 | 74 | Cc1c(C(N)=O)sc2ncnc(Nc3ccc(F)cc3O[C@H]3C[C@@H]4OC(C)(C)O[C@@H]4C3)c12 [Example 213]
30 | 9 | Cc1c(C(N)=O)sc2ncnc(Nc3ccc(F)cc3O[C@H]3C[C@@H]4OCO[C@@H]4C3)c12 [Example 214]
31 | 53 | CO[C@H]1C[C@@H](Oc2cc(F)ccc2Nc2ncnc3sc(C(N)=O)c(C)c23)C[C@H]1OC [Example 216]
32 | 38 | Cc1c(C(N)=O)sc2ncnc(Nc3ccc(F)cc3O[C@@H]3C[C@@H]4OCO[C@@H]4C3)c12 [Example 218]
33 | 390 | Cc1c(C(N)=O)sc2ncnc(Nc3ccc(F)cc3O[C@@H]3C[C@@H]4OC(C)(C)O[C@@H]4C3)c12 [Example 220]
34 | 7 | Cc1c(C(N)=O)sc2ncnc(Nc3ccc(F)cc3O[C@H]3CC[C@H](N)C3)c12 [Example 229, 4-[2-((1S,3S)-3-Amino-cyclopentyloxy)-4-fluoro-phenylamino]-5-methyl-thieno[2,3-d]pyrimidine-6-carboxylic acid amide trifluoroacetate]
35 | 4 | CC(=O)N[C@H]1CC[C@H](Oc2cc(F)ccc2Nc2ncnc3sc(C(N)=O)c(C)c23)C1 [Example 230, 4-[2-((1S,3S)-3-Acetylamino-cyclopentyloxy)-4-fluoro-phenylamino]-5-methyl-thieno[2,3-d]pyrimidine-6-carboxylic acid amide]
36 | 14 | CC(=O)N[C@H]1CC[C@H](Oc2cc(F)ccc2Nc2ncnc3sc(C(=O)NCCO)c(C)c23)C1 [Example 231, 4-[2-((1S,3S)-3-Acetylamino-cyclopentyloxy)-4-fluoro-phenylamino]-5-methyl-thieno[2,3-d]pyrimidine-6-carboxylic acid (2-hydroxy-ethyl)-amide]
37 | 6 | CC(=O)N[C@H]1CC[C@H](Oc2cc(F)ccc2Nc2ncnc3sc(C(=O)N[C@@H]4C[C@H]4NC(=O)OC(C)(C)C)c(C)c23)C1 [Example 232]
38 | 19 | CC(=O)N[C@H]1CC[C@H](Oc2cc(F)ccc2Nc2ncnc3sc(C(=O)NCC#CCN(C)C)c(C)c23)C1 [Example 233]
39 | 15 | CC(=O)N[C@H]1CC[C@H](Oc2cc(F)ccc2Nc2ncnc3sc(C(=O)NCCCN4CCCC4)c(C)c23)C1 [Example 239]
40 | 13 | CC(=O)N(C)[C@H]1CC[C@H](Oc2cc(F)ccc2Nc2ncnc3sc(C(N)=O)c(C)c23)C1 [Example 240, 4-{2-[(1S,3S)-3-(Acetyl-methyl-amino)-cyclopentyloxy]-4-fluoro-phenylamino}-5-methyl-thieno[2,3-d]pyrimidine-6-carboxylic acid amide]
41 | 139 | COC(=O)c1sc2ncnc(Nc3ccc(F)cc3O[C@@H]3CCCC[C@H]3OC)c2c1C [Example 247, 4-[4-Fluoro-2-((1R,2R)-2-methoxy-cyclohexyloxy)-phenylamino]-5-methyl-thieno[2,3-d]pyrimidine-6-carboxylic acid methyl ester]
